Assay results reported in patent US20240174679A1, “HETEROAROYL AMIDES AS LRRK2 INHIBITORS, PHARMACEUTICAL COMPOSITIONS, AND USES THEREOF” (MERCK SHARP & DOHME LLC, priority 2021, published 2024).

Target: GST tagged truncated human mutant G2019S LRRK2 (Homo sapiens (Human), UniProt Q5S007, G2019S)
Experiment: LRRK2 Km ATP LanthaScreen Assay
Type: biochemical
Conditions: 134 μM ATP (Km ATP), LRRKtide substrate, negative log of mean IC50 (molar)
Protocol: Unless otherwise noted, all reactions are magnetically stirred. Unless otherwise noted, when diethyl ether is used in the experiments described below, it is Fisher ACS certified material and is stabilized with BHT. Unless otherwise noted, “concentrated” and/or “solvent removed under reduced pressure” means evaporating the solvent from a solution or mixture using a rotary evaporator or vacuum pump. Unless otherwise noted, flash chromatography is carried out on a Teledyne Isco (Lincoln, NE), Analogix (Burlington, WI), or Biotage (Stockholm, SWE) automated chromatography system using a commercially available cartridge as the column. Columns may be purchased from Teledyne Isco, Analogix, Biotage, Varian (Palo Alto, CA), or Supelco (Bellefonte, PA) and are usually filled with silica gel as the stationary phase. Reversed phase preparative HPLC conditions, where used, can be found at the end of each experimental section. Aqueous solutions were concentrated on a Genevac (Ipswich, ENG) or by freeze-drying/lyophilization. Unless otherwise noted, all LRRK2 pIC50 data presented in tables refers to the LRRK2 G2019S Km ATP LanthaScreen™ assay (Life Technologies Corp., Carlsbad, CA) that is described in the Biological Assay section.
Biological Assay: LRRK2 Km ATP LanthaScreen™ Assay
Compound potency against LRRK2 kinase activity was determined using LanthaScreen™ technology from Life Technologies Corporation (Carlsbad, CA) using a GST20 tagged truncated human mutant G2019S LRRK2 in the presence of the fluorescein-labeled peptide substrate LRRKtide® (LRRK2 phosphorylated ezrin/radixin/moesin (ERM)), also from Life Technologies. The data presented for the Km ATP LanthaScreen™ Assay represents mean IC50 values based on several test results and may have reasonable deviations depending on the specific conditions and reagents used. Km is the Michaelis constant of an enzyme and is defined as the concentration of native substrate (ATP for a kinase) which permits the enzyme to achieve half Vmax (Vmax=rate of reaction when the enzyme is saturated with substrate). IC50 (half-maximal inhibitory concentration) represents the concentration of inhibitor required to inhibit LRRK2 kinase activity by 50%. Assays were performed in the presence of 134 μM ATP (Km ATP). Upon completion, the assay was stopped, and phosphorylated substrate detected with a terbium (Tb)-labeled anti-pERM antibody (cat. no. PV4898). The compound dose response was prepared by diluting a 10 mM stock of compound to a maximum concentration of 9.99 μM in 100% DMSO, followed by custom fold serial dilution in DMSO nine times. 20 nL of each dilution was spotted via a Labcyte Echo onto a 384-well black-sided plate (Corning 3575) followed by 15 μL of a 1.25 nM enzyme solution in 1× assay buffer (50 mM Tris pH 8.5, 10 mM MgCl2, 0.01% Brij-35, 1 mM EGTA, 2 mM dithiothreitol, 0.05 mM sodium orthovanadate). Following a 15-min incubation period at rt, the kinase reaction was started with the addition of 5 μL of 400 nM fluorescein-labeled LRRKtide® (LRRK2 phosphorylated ezrin/radixin/moesin (ERM)) peptide substrate and 134 μM ATP solution in 1× assay buffer. The reaction was allowed to progress at ambient temperature for 90 min. The reaction was then stopped by the addition of 20 μL of TR-FRET Dilution Buffer (Life Technologies, Carlsbad, CA) containing 2 nM Tb-labeled anti-phospho LRRKtide® (LRRK2 phosphorylated ezrin/radixin/moesin (ERM)) antibody and 10 mM EDTA (Life Technologies, Carlsbad, CA). After an incubation period of 1 h at rt, the plate was read on an EnVision® multimode plate reader (Perkin Elmer, Waltham, MA) with an excitation wavelength of 337 nm (Laser) and a reading emission at both 520 and 495 nm. Compound IC50 values were interpolated from nonlinear regression best-fits of the log of the final compound concentration, plotted as a function of the 520/495-nm emission ratio using activity base “Abase”). Abase uses a 4 parameter (4P) logistic fit based on the Levenberg-Marquardt algorithm. […]

GST tagged truncated human mutant G2019S LRRK2, sequence (Q5S007 970-2527 G2019S): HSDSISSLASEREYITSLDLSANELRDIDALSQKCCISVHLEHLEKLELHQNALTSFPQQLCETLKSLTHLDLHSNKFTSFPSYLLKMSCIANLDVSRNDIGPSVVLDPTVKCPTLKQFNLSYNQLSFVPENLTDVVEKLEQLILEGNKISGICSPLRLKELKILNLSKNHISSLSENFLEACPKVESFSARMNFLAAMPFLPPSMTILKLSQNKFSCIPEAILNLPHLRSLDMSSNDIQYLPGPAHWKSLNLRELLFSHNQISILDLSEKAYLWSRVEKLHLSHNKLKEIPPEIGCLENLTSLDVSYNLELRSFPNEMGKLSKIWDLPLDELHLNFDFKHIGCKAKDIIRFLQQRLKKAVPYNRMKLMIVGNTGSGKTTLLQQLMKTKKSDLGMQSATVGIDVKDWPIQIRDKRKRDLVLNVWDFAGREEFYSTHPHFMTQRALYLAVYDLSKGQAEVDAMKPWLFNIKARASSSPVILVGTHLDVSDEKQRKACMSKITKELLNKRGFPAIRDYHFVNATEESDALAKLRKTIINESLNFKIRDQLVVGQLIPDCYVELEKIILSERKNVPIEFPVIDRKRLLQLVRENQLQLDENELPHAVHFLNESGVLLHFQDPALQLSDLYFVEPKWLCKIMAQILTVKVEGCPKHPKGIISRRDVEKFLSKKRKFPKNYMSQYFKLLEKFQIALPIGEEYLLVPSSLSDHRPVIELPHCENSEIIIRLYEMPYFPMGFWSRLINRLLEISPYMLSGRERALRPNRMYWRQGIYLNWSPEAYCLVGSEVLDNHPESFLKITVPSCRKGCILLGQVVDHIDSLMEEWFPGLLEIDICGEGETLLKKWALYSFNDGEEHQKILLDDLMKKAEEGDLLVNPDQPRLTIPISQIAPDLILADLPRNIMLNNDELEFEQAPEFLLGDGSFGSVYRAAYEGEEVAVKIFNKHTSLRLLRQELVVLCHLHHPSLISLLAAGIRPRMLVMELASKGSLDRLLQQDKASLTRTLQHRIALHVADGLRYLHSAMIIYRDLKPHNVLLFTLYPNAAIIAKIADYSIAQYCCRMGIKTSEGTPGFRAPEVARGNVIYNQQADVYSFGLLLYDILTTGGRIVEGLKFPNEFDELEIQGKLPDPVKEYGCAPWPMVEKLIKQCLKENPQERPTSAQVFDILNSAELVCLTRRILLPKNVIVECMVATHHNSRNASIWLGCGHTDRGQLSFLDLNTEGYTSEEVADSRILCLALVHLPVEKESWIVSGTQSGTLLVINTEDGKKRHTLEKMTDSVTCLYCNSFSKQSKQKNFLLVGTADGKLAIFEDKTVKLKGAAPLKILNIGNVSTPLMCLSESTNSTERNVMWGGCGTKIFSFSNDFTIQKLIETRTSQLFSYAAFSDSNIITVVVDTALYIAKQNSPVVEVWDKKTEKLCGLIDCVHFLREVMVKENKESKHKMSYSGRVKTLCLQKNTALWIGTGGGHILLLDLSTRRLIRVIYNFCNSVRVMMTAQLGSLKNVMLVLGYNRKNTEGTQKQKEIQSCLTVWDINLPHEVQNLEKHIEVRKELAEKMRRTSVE

SMILES | LRRK2 pIC50
COCCn1cc(-c2cccc(C(=O)Nc3cnn(CC4CCC4)c3)n2)cn1 [Example 9-12, N-[1-(cyclobutylmethyl)-1H-pyrazol-4-yl]-6-[1-(2-methoxyethyl)-1H-pyrazol-4-yl]pyridine-2-carboxamide] | 6.95
COc1nn(CC(F)(F)F)cc1NC(=O)c1csc(-c2cn[nH]c2)n1 [Example 1-2, N-(3-Methoxy-1-(2,2,2-trifluoroethyl)-1H-pyrazol-4-yl)-2-(1H-pyrazol-4-yl)thiazole-4-carboxamide] | 7.46
O=C(Nc1cnn(C2CCC2)c1)c1csc(Nc2ccccc2)n1 [Example 4-14, N-(1-cyclobutyl-1H-pyrazol-4-yl)-2-(phenylamino)-1,3-thiazole-4-carboxamide] | 6.12
O=C(Nc1cnn(C2CCC2)c1C1CC1)c1csc(-c2cn[nH]c2)n1 [Example 3-3, N-(1-cyclobutyl-5-cyclopropyl-1H-pyrazol-4-yl)-2-(1H-pyrazol-4-yl)-1,3-thiazole-4-carboxamide] | 7.16
Cc1[nH]ncc1-c1nc(C(=O)Nc2cnn(C3CCC3)c2)cs1 [Example 9-18, N-(1-cyclobutyl-1H-pyrazol-4-yl)-2-(5-methyl-1H-pyrazol-4-yl)-1,3-thiazole-4-carboxamide] | 7.59
CC1(C)CC(Cn2cc(NC(=O)c3csc(-c4cn[nH]c4)n3)cn2)C1 [Example 1-32, N-{1-[(3,3-dimethylcyclobu-tyl)methyl]-1H-pyrazol-4-yl}-2-(1H-pyrazol-4-yl)-1,3-thiazole-4-carboxamide] | 8.00
CC(=O)Nc1cccc(C(=O)Nc2cnn(C3CCC3)c2)n1 [Example 4-8, 6-(acetylamino)-N-(1-cyclobutyl-1H-pyrazol-4-yl)pyridine-2-carboxamide] | 6.33
O=C(Nc1cnn(C2CCC2)c1)c1csc(-c2cnn3c2CCCC3)n1 [Example 9-27, N-(1-cyclobutyl-1H-pyrazol-4-yl)-2-(4,5,6,7-tetrahydropyrazolo [1,5-a]pyridin-3-yl)-1,3-thiazole-4-carboxamide] | 8.25
CC(C1CC1)n1ncc(NC(=O)c2csc(-c3cn[nH]c3)n2)c1C(F)F (single isomer, unassigned) [Example 3-4, (R)- or (S)—N-(1-(1-cyclopropylethyl)-5-(difluoromethyl)-1H-pyrazol-4-yl)-2-(1H-pyrazol-4-yl)thiazole-4-carboxamide] | 5.69
O=C(Nc1cnn(C2CCC2)c1)c1cccc(N2CCCCC2)n1 [Example 4-18, N-(1-cyclobutyl-1H-pyrazol-4-yl)-6-(piperidin-1-yl)picolinamide] | 5.81
O=C(Nc1cnn(-c2ccncc2)c1)c1coc(-c2cn[nH]c2)n1 [Example 1-21, 2-(1H-pyrazol-4-yl)-N-(1-pyridin-4-yl-1H-pyrazol-4-yl)-1,3-oxazole-4-carboxamide] | 7.18
CC(C1CC1)n1cc(NC(=O)c2csc(-c3cn[nH]c3)n2)c(C(F)F)n1 (stereo not drawn) [Example 3-1, N-(1-(1-Cyclopropylethyl)-3-(difluoromethyl)-1H-pyrazol-4-yl)-2-(1H-pyrazol-4-yl)thiazole-4-carboxamide] | 7.27
O=C(Nc1cnn(C2CCC2)c1)c1csc(-c2cnn3c2CCC3)n1 [Example 9-3, N-(1-cyclobutyl-1H-pyrazol-4-yl)-2-(5,6-dihydro-4H-pyrrolo[1,2-b]pyrazol-3-yl)-1,3-thiazole-4-carboxamide] | 8.01
O=C(Nc1cn(CC2CC2)nc1C(F)F)c1csc(-c2cn[nH]c2)n1 [Example 7-33, N-[1-(cyclopropylmethyl)-3-(difluoromethyl)-1H-pyrazol-4-yl]-2-(1H-pyrazol-4-yl)-1,3-thiazole-4-carboxamide] | 8.13
CN(C)C(=O)c1nn(C)cc1NC(=O)c1csc(-c2cn[nH]c2)n1 [Example 1-36, N-[3-(dimethylcarba-moyl)-1-methyl-1H-pyrazol-4-yl]-2-(1H-pyrazol-4-yl)-1,3-thiazole-4-carboxamide] | 7.25
CC(C)n1cc(NC(=O)c2csc(-c3cn[nH]c3)n2)c(C(F)F)n1 [Example 7-18, N-[3-(difluoromethyl)-1-(1-methylethyl)-1H-pyrazol-4-yl]-2-(1H-pyrazol-4-yl)-1,3-thiazole-4-carboxamide] | 7.72
O=C(Nc1cnn(CC2CCC2)c1)c1cccc(-c2cnn(C(F)F)c2)n1 [Example 9-33, N-[1-(cyclobutylmethyl)-1H-pyrazol-4-yl]-6-[1-(difluoromethyl)-1H-pyrazol-4-yl]pyridine-2-carboxamide] | 6.75
O=C(Nc1cn(C2CC2)nc1C(F)F)c1csc(-c2cn[nH]c2)n1 [Example 1-38, N-[1-cyclopropyl-3-(difluoromethyl)-1H-pyrazol-4-yl]-2-(1H-pyrazol-4-yl)-1,3-thiazole-4-carboxamide] | 8.23
COc1nn(CC2CCOCC2)cc1NC(=O)c1csc(-c2cn[nH]c2)n1 [Example 7-16, N-[3-methoxy-1-(tetrahydro-2H-pyran-4-ylmethyl)-1H-pyrazol-4-yl]-2-(1H-pyrazol-4-yl)-1,3-thiazole-4-carboxamide] | 7.25
Cc1nn(C(F)F)cc1NC(=O)c1csc(-c2cn[nH]c2)n1 [Example 1-5, N-[1-(difluoromethyl)-3-methyl-1H-pyrazol-4-yl]-2-(1H-pyrazol-4-yl)-1,3-thiazole-4-carboxamide] | 7.08
CCn1cc(NC(=O)c2csc(-c3cn[nH]c3)n2)c(C#N)n1 [Example 1-10, N-(3-cyano-1-ethyl-1H-pyrazol-4-yl)-2-(1H-pyrazol-4-yl)-1,3-thiazole-4-carboxamide] | 7.30
O=C(Nc1cnn(C2CCC2)c1)c1csc(-c2cc[nH]n2)n1 [Example 9-14, N-(1-cyclobutyl-1H-pyrazol-4-yl)-2-(1H-pyrazol-3-yl)-1,3-thiazole-4-carboxamide] | 7.41
Cn1cc(NC(=O)c2csc(-c3cn[nH]c3)n2)c(CO)n1 [Example 6-1, N-(3-(Hydroxymethyl)-1-methyl-1H-pyrazol-4-yl)-2-(1H-pyrazol-4-yl)thiazole-4-carboxamide] | 7.47
O=C(Nc1cnn(C2CCC2)c1)c1csc(-c2cnn3c2OCCC3)n1 [Example 9-21, N-(1-cyclobutyl-1H-pyrazol-4-yl)-2-(6,7-dihydro-5H-pyrazolo[5,1-b][1,3]oxazin-3-yl)-1,3-thiazole-4-carboxamide] | 8.08
COc1nn(CC2CCC2)cc1NC(=O)c1csc(-c2cn[nH]c2)n1 [Example 7-19, N-[1-(cyclobutylmethyl)-3-methoxy-1H-pyrazol-4-yl]-2-(1H-pyrazol-4-yl)-1,3-thiazole-4-carboxamide] | 7.80
O=C(Nc1cnn(CC2CCC2)c1)c1cccc(-c2cnn3c2COCC3)n1 [Example 9-10, N-[1-(cyclobutylmethyl)-1H-pyrazol-4-yl]-6-(6,7-dihydro-4H-pyrazolo[5,1-c][1,4]oxazin-3-yl)pyridine-2-carboxamide] | 7.76

Same assay, conditions: 134 μM ATP (Km ATP), LRRKtide substrate, negative log of mean IC50 (molar), read-out: LRRK2 pIC50 (converted)

SMILES | IC50 [nM]
CC(C1CC1)n1cc(NC(=O)c2csc(-c3cn[nH]c3)n2)cn1 (single isomer, unassigned) [Example 2-1, (R)- or (S)—N-(1-(1-cyclopropylethyl)-1H-pyrazol-4-yl)-2-(1H-pyrazol-4-yl)thiazole-4-carboxamide] | 32.4
